Counter-ions that a name gives are not always drawn.
What was measured:
[1] = tested on: eIF4E Ser209 phosphorylation in Hela cells; assay: MNK cell-based assay, AlphaScreen SureFire; conditions: 2 hours
Excerpt: It has been reported that Ser209 of eIF4E is solely phosphorylated by the MNK enzymes. The ability of compounds to inhibit this process in Hela cells was investigated using the AlphaScreen SureFire® assay platform from Perkin Elmer (Waltham, Mass.). eIF4E phosphorylated on Ser209 is recognized by two antibodies, the first which is fused to a streptavidin coated donor bead binds to an epitope away from Ser209, the second which is fused to a protein A conjugated acceptor bead binds to phosphorylated Ser209. The phosphorylation of eIF4E on Ser209 brings the two antibodies into close proximity and when excited by a laser a singlet oxygen is released by the donor bead which excites the acceptor bead resulting in the emission of light. This enables the monitoring of eIF4E Ser209 phosphorylation and its inhibition in a cellular context.
Hela cells were seeded into microtitre plates (30,000 cells per well) in 100 μl of culture medium and incubated at 37° C. for 24 hours. The media was then removed by aspiration and the cells resuspended in 50 μl of serum free medium containing the test compound and incubated at 37° C. for 2 hours. The culture medium was again removed by aspiration and the cells resuspended in lysis buffer (provided in Perkin Elmer SureFire® Assay Kit). After agitation at 350 rpm for 20 minutes at 22° C., 4 μl was transferred to a 384 well OptiPlate™ (Perkin Elmer, Waltham, Mass.). To each well was added 5 μl of acceptor mix; the plate was sealed and agitated gently at 22° C. for 2 hours. Then, in subdued light, 2 μl of donor mix was added to each well, the plate was sealed, wrapped in aluminum foil and agitated gently at 22° C. for 2 hours. Emission was measured using the EnVision® plate reader (Perkin Elmer, Waltham, Mass.).
Inhibition constants (IC50) were determined by plotting AlphaScreen signal versus log compound concentration and fitting with a non-linear regression algorithm using GraphPad Prism (GraphPad Software Inc.).

MNK1 = MNK1 (Homo sapiens, UniProt Q9BUB5); assay: In vitro MNK kinase assay (Caliper LabChip mobility shift); format: biochemical; conditions: enzymatic, 1.2 mM ATP; read-out: IC50 Mnk1
[2] = tested on: K562 cells over-expressing eIF4E; assay: Cell cytotoxicity assay (CellTiter-Glo); format: cell-based; conditions: 48 hours extended to 6 days
Method: (§1) Cancer cell lines, MV-4-11 (leukemia), P116.c139 (acute T cell leukemia) and D1.1 (acute T cell leukemia), were purchased from ATCC and cultured according to supplier's recommendations. K562 cells (myelogenous leukemia) over-expressing eIF4E, were also used for the cytotoxicity assay. For cells treated for 48 hours, 5000 cells were seeded in 70 μl of growth medium in black, flat-bottom 96-well plate. For cells treated for six days, 1000 cells were seeded in 70 μl of growth medium in black, flat-bottom 96-well plate. […] 50 μl of the diluted compounds was added to the cells and incubated at 37° C. in 5% CO2. After 48 hours or six days treatment, cell viability was determined by CellTiter-Glo Luminescent Cell Viability Assay (Promega, Madison, Wis.). 120 μl of the reagent was added to the cells and luminescence was measured using Tecan Safire Reader. Data was analysed with Graphpad Prism software and the figures represented indicate the half maximal inhibitory concentration (IC50). Error bars denote standard deviation (SD).

D1.1 cells = assay: Cell cytotoxicity assay (CellTiter-Glo); format: cell-based; conditions: 48 hours extended to 6 days
Method: as §1

P116.c139 cells = assay: Cell cytotoxicity assay (CellTiter-Glo); format: cell-based; conditions: 48 hours extended to 6 days
Method: as §1

MNK2 = MNK2 (Homo sapiens (Human), UniProt Q9HBH9); assay: In vitro MNK kinase assay (Caliper LabChip mobility shift); format: biochemical; conditions: enzymatic, 250 μM ATP; read-out: IC50 Mnk2
[3] = tested on: CD34+ BC-CML primary cells; assay: Serial replating assay; format: cell-based, human; conditions: for serial replating efficiency of CD34+ BC cells: increasing dose, 48 hr treatment, compared to DMSO
Excerpt: Cord Blood (CB) samples were purchased from the Singapore Cord Blood bank. CML samples were the Singapore General Hospital after signed informed consent under local IRB-approved procedures. MNCs were obtained using Ficoll separation, and CD34^+ cells selected by immunomagnetic beads (Miltenyi Biotech, Germany).
CD34-enriched CB and BC cells were thawed and allowed to recover overnight in serum-free StemPro media (Invitrogen, Carlsbad, Calif.), supplemented with human growth factors and 1× nutrient supplement (Invitrogen). Cells were then subjected to drug treatment for 48 hr, harvested, washed, and seeded in methycellulose (H4434, […] Technologies, Canada). Colonies were enumerated after 2 weeks, individually picked, and replated in fresh methylcellulose in a 96-well format, and counted at 2 weeks. Three rounds of serial replating (representing>8 weeks in culture) were performed.

[4] = tested on: eIF4E phosphorylation in K562 cells; assay: Western blot of eIF4E phosphorylation in BC-CML cell line; format: cell-based; conditions: various concentrations, 24 h
Method: K562 cell line was obtained from the ATCC, and grown in RPMI supplemented with 10% FCS, L-glutamine, and penicillin/streptomycin.
Exponentially growing cells were plated at 2×10^5 cells/ml, and whole cell lysate processed for western blot analysis using antibodies recognizing eIF4E, phospho-eIF4E (Cell signaling Technology),

Sequence of MNK2 (Q9HBH9 84-388): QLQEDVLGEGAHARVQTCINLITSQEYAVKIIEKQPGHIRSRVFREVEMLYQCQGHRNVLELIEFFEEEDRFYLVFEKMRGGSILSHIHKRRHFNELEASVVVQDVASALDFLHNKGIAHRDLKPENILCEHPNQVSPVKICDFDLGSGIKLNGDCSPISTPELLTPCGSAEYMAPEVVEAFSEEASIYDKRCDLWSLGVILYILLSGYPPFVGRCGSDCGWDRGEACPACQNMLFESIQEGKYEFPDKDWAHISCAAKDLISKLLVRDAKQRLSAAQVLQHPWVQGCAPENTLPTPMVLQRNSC

IC50 (MNK1) | IC50 (MNK2) | Compound | also measured
– | – | CN1CCN(C(=O)c2ccc(-c3ccc4ncc(-c5ccc(C#N)cc5)n4n3)cc2)CC1 [Example 54] | IC50 ([1]; Homo sapiens): < 1000 nM
< 100 nM | < 100 nM | CN1CCN(C2CCN(C(=O)c3ccc(-c4ccc5ncc(-c6ccc(C#N)cc6)n5c4)cc3)CC2)CC1 [Example 133, 4-(6-(4-(4(4-methylpiperazin-1-yl)piperidine-1-carbonyl)phenyl)imidazo[1,2-a]pyridin-3-yl)benzonitrile] | change of IC50 with treatment duration, K562 cells over-expressing eIF4E [2]: not influenced by the treatment duration; change of IC50 with treatment duration, D1.1 cells (D1.1 cells): not influenced by the treatment duration; change of IC50 with treatment duration, P116.c139 cells (P116.c139 cells): decrease the IC50 by more than half-fold
< 1000 nM | < 1000 nM | O=C(c1ccc(-c2cn3c(-c4ccc(O)cc4)cnc3cn2)cc1)N1CCOCC1 [Example 2, (4-(3-(4-hydroxyphenyl)imidazo[1,2-a]pyrazin-6-yl)phenyl)(morpholino)methanone] | ability of BC cells to serial replate ([3]; at 10.0 μM and 20.0): potently impaired the ability of BC cells to serial replate; serial replating efficiency of CD34+ BC cells [3]: retards serial replating efficiency; eIF4E phosphorylation [4]: prevent eIF4E phosphorylation
– | – | N#Cc1ccc(-c2cnc3ccc(-c4ccc(C(=O)N5CCN(c6ccncc6)CC5)cc4)cn23)cc1 [Example 125, 4-(6-(4-(4-(pyridin-4-1)piperazine-1-carbonyl)phenyl)imidazo[1,2-a]pyridin-3-yl)benzonitrile] | IC50 [1]: < 1000 nM
– | – | N-(5-(3-(4-cyanophenyl)imidazo[1,2-b]pyridazin-6-yl)-2-morpholine-4-carbonyl)phenyl)acetamide [Example 80] | IC50 [1]: < 1000 nM
– | – | CN1CCN(C(=O)c2ccc(-c3cn4c(-c5ccc(C#N)cc5)cnc4cn3)cc2)CC1 [Example 6, 4-(6-(4-(4-methylpinerazine-1-carbonyl)phenyl)imidazo[1,2-a]pyrazin-3-yl)benzonitrile] | eIF4E phosphorylation [4]: prevent eIF4E phosphorylation
< 100 nM | < 100 nM | CN1CCN(C(=O)c2ccc(-c3ccc4ncc(-c5ccc(C#N)cc5)n4c3)c(O)c2)CC1 [Example 144, 4-(6-(2-hydroxy-4-(4-methylpiperazine-1-carbonyl)phenyl)imidazo[1,2-a]pyridin-3-yl)benzonitrile] | IC50 ([1]; Homo sapiens): < 1000 nM
< 100 nM | < 100 nM | CN1CCN(C(=O)c2ccc(-c3ccc4ncc(-c5ccc(C#N)cc5)n4c3)cc2O)CC1 [Example 143, 4-(6-(3-hydroxy-4-(4-methylpiperazine-1-carbonyl)phenyl)imidazo[1,2-a]pyridin-3-yl)benzonitrile] | IC50 ([1]; Homo sapiens): < 1000 nM
< 1000 nM | < 1000 nM | CN1CCCN(C(=O)c2ccc(-c3cn4c(-c5ccc(C#N)cc5)cnc4cn3)cc2)CC1 [Example 17, 4-(6-(4-(4-methyl-1,4-diazepane-1-carbonyl)phenyl)imidazo[1,2-a]pyrazin-3-yl)benzonitrile] | –
< 100 nM | < 100 nM | N#Cc1ccc(-c2cnn3ccc(-c4ccc(C(=O)N5CCCOCC5)cc4)nc23)cc1 [Example 181, 4-(5-(4-(1,4-oxazepane-4-carbonyl)phenyl)pyrazolo[1,5-a]pyrimidin-3-yl)benzonitrile] | –
– | – | N-(1-(4-(3-(4-chlorophenyl)imidazo[1,2-a]pyrazin-6-yl)benzoyl)piperidin-4-yl)-2,2,2-acetamide [Example 49] | IC50 [1]: < 1000 nM
< 100 nM | < 100 nM | N#Cc1ccc(-c2cnc3ccc(-c4ccc(C(=O)N5CCC(O)CC5)cc4)nn23)cc1 [Example 55, 4-(6-(4-(4-hydroxypiperidine-1-carbonyl)phenyl)imidazo[1,2-b]pyridazin-3-yl)benzonitrile] | –
< 100 nM | < 100 nM | CN1CCCCC12CCN(C(=O)c1ccc(-c3ccc4ncc(-c5ccc(C#N)cc5)n4c3)cc1)CC2 [Example 119, 4-(6-(4-(1-methyl-1,9-diazaspiro[5.5]undecane-9-carbonyl)phenyl)imidazo[1,2-a]pyridin-3-yl)benzonitrile] | –
< 100 nM | < 100 nM | CN1CCN(C(=O)c2ccc(-c3cn4c(-c5ccc(O)cc5)cnc4cn3)cc2)CC1 [Example 1, (4-(3-(4-hydroxyphenyl)imidazo[1,2-a]pyrazin-6-yl)phenyl)(4-methylpiperazin-1-yl)methanone] | serial replating efficiency of CD34+ BC cells [3]: retards the serial replating efficiency; eIF4E phosphorylation [4]: prevent eIF4E phosphorylation
< 100 nM | < 100 nM | NC(=O)c1ccc(-c2cnc3cnc(-c4ccc(C(=O)N5CCC(N)CC5)cc4)cn23)cc1 [Example 4, 4-(6-(4-(4-aminopiperidine-1-carbonyl)phenyl)imidazo[1,2-a]pyrazin-3-yl)benzamide hydrochloride] | –
< 100 nM | < 100 nM | CN(C)C1CCN(C(=O)c2ccc(-c3ccc4ncc(-c5ccc(C#N)cc5)n4c3)cc2)CC1 [Example 112, 4-(6-(4-(4-(dimethylamino)piperidine-1-carbonyl)phenyl)imidazo[1,2-a]pyridin-3-yl)benzonitrile] | –
< 100 nM | < 100 nM | N#Cc1ccc(-c2cnc3ccc(-c4ccc(C(=O)N5CCNC(=O)C5)cc4)nn23)cc1 [Example 68, 4-(6-(4-(3-oxopiperazine-1-carbonyl)phenyl)imidazo[1,2-b]pyridazin-3-yl)benzonitrile] | –
< 100 nM | < 100 nM | CNc1cc(-c2ccc3ncc(-c4ccc(C#N)cc4)n3c2)ccc1C(=O)N1CCN(C)CC1 [Example 150, 4-(6-(3-(methylamino)-4-(4-methylpiperazine-1-carbonyl)phenyl)imidazo[1,2-a]pyridin-3-yl)benzonitrile] | –
< 100 nM | < 100 nM | N#Cc1ccc(-c2cnc3ccc(-c4ccc(C(=O)N5CCC(CCN)CC5)cc4)cn23)cc1 [Example 124, 4-(6-(4-(4-(2-aminoethyl)piperidine-1-carbonyl)phenyl)imidazo[1,2-a]pyridin-3-yl)benzonitrile] | –
< 100 nM | < 100 nM | N#Cc1ccc(-c2cnc3ccc(-c4ccc(C(=O)N5CCC(CN)CC5)cc4)cn23)cc1 [Example 123, 4-(6-(4-(4-(aminomethyl)piperidine-1-carbonyl)phenyl)imidazo[1,2-a]pyridin-3-yl)benzonitrile] | –
< 100 nM | < 100 nM | CC(=O)NC1(C)CCN(C(=O)c2ccc(-c3ccc4ncc(-c5ccc(C#N)cc5)n4c3)cc2)CC1 [Example 99, N-(1-(4-(3-(4-cyanophenyl)imidazo[1,2-a]pyridin-6-yl)benzoyl)-4-methylpiperidin-4-yl)acetamide] | –
< 1000 nM | < 1000 nM | NC(=O)c1ccc(-c2cn3c(-c4ccc(Cl)cc4)cnc3cn2)cc1 [Example 42, 4-(3-(4-chlorophenyl)imidazo[1,2-a]pyrazin-6-yl)benzamide] | –

Compound | IC50 (MNK1) | IC50 (MNK2) | also measured
CN1CCN(C(=O)c2ccc(-c3ccc4ncc(-c5ccc(C#N)cc5)n4c3)cc2)CC1 [Example 95, 4-(6-(4-(4-Methylpiperazine-1-carbonyl)phenyl)imidazo[1,2-a]pyridin-3-yl)benzonitrile] | < 100 nM | < 100 nM | –

Reference: patent publication US9908886B2 (Agency for Science, Technology and Research, priority 2012, dated 2018)
